Data taken from patent EP2966448B1, “METHOD FOR THE PREDICTION OR PROGNOSIS OF THE RESPONSE OF A HUMAN SUBJECT SUFFERING FROM CANCER TO TREATMENT WITH AN ANTAGONIST OF THE NK1 RECEPTOR” (priority 2013, dated 2014).
Where two headings read alike, the source gives them in different places.

Experiments:
[1] = tested on: human primary tumor cells; assay: Inhibition of primary tumor cell cultures vs constitutively activated form of NK1 receptor (Example 7; tumor type per table line); type: cell-based
Experimental: (§1) Cell cultures. To obtain tumor cells from human primary tumors we used the method described in De Bari et al. (De Bari et al. 2001). Briefly, small pieces of the tumors were digested into a hyaluronidase solution (Sigma-Aldrich, USA) at a concentration of 1 mg/ml during 15 minutes at 37°C, and then they were treated with 6 mg/ml of collagenase type IV (Invitrogen) during 2 hours at 37°C. Consecutively, cells were washed, and resuspended in the DMEM culture medium with high concentration of glucose (Dulbecco's Modified Eagle's Medium, Invitrogen) supplemented with 1% of antibiotics-antimycotics (Invitrogen) and with 1% of sodium pyruvate (Invitrogen), and the cells were seeded in culture slides at a concentration of 10.000 cells per square centimeter. When cells reached confluence, the adherent cells were separated using sterile trypsin at 0,5% (Invitrogen) and they were used among passages 3 and 9. For the assays shown next, tumor cells were seeded on slides at a concentration of 25.000 cells per well. A total of 6 wells containing the tumor cells were used as survival control. […] All the cultures were kept during 48 hours and later on recollected for their analysis.
It was determined the increase or not in proliferation with the exposition to substance P (NK1 receptor agonist), so that for the cell cultures which grew independently from the exposition to substance P, it was considered that they have constitutively activated forms of such receptor, because a mitogenic signal independently from the presence of the agonist was transmitted. It was checked that all tumor cells presented integrity in the MAP Kinases and PI3 Kinases pathways, as wel as in the K-ras gene, and the protein derived from it.

[2] = tested on: Non Hodgkin Lymphoma T (diffuse T cell lymphoma); assay: Inhibition of primary tumor cell cultures vs Kras mutation (Example 2); type: cell-based, human; details: 100 micromolar; for inhibition at 100 µM: Homo sapiens, T-cell, read-out: Percentage of inhibition of cell cultures; for Percentage of inhibition of cell cultures: Non Hodgkin Lymphoma T (diffuse T cell lymphoma)
Experimental: as §1
(§2) In each case the presence or not of mutations in K-ras gene was determined.
(§3) To determine the existence of mutations in the K-ras gene DNA from cancer tumor cells was extracted from samples obtained from the different cancer tumor cells, using DNA extraction kits from Takara (Madison, WI, US) or Ambion (Huntingdon, Cambridgeshire, United Kingdom), following the manufacturer's instructions, and as it has been previously published (Di Fiore F, et al. 2007). Consecutively it was analyzed by sequencing the exon 2 of the KRAS gene, , by means of PCR amplification from previously extracted cancer tumor DNA, using the following sense primer (SEQ ID NO. 15): 5'-[sequence]-3' and anti-sense primer (SEQ ID NO. 16): 5'-[sequence]-3'. After the purification using the Qiagen extraction kit, the PCR products were sequenced using the Big Dye Terminator Kit V3.1 (Applied Biosystems, Foster City, CA, U.S.) and an ABI Prism 377 or 3100 DNA sequencer (Applied Biosystems). The presence of a heterozygous mutation in the KRAS gene in cancer tumor cells of the cultures was defined as the appearance of a mutant peak of a height of at least a third of the wild type. All the sequence analysis were executed at least twice in two independent PCR.
The percentages of inhibition are expressed in percentage of variation in relation to control ± standard deviation.

[3] = tested on: Lung carcinoma (non small cell lung carcinoma); assay: as above; type: cell-based, human; details: 100 micromolar; for inhibition at 100 µM: Homo sapiens, read-out: Percentage of inhibition of cell cultures; for Percentage of inhibition of cell cultures: Lung carcinoma (non small cell lung carcinoma)
Experimental: To obtain tumor cells from human primary tumors we used the method described in De Bari et al. (De Bari et al. 2001). Briefly, small pieces of the tumors were digested into a hyaluronidase solution (Sigma-Aldrich, USA) at a concentration of 1 mg/ml during 15 minutes at 37°C, and then they were treated with 6 mg/ml of collagenase type IV (Invitrogen) during 2 hours at 37°C. Consecutively, cells were washed, and resuspended in the DMEM culture medium with high concentration of glucose (Dulbecco's Modified Eagle's Medium, Invitrogen) supplemented with 1% of antibiotics-antimycotics (Invitrogen) and with 1% of sodium pyruvate (Invitrogen), and the cells were seeded in culture slides at a concentration of 10.000 cells per square centimeter. When cells reached confluence, the adherent cells were separated using sterile trypsin at 0,5% (Invitrogen) and they were used among passages 3 and 9. For the assays shown next, tumor cells were seeded on slides at a concentration of 25.000 cells per well. A total of 6 wells containing the tumor cells were used as survival control. […] All the cultures were kept during 48 hours and later on recollected for their analysis.
as §2, §3
(§4) The antibody against NK1 receptor (Table 16) was used at 1/50 concentration. The percentages of inhibition are expressed in percentage of variation in relation to control ± standard deviation.

[4] = tested on: Ovarian carcinoma; assay: Inhibition of primary tumor cell cultures (48 hours) vs NK1 receptor immunostaining (Example 1); type: cell-based; details: Homo sapiens, 1 micromolar, read-out: Percentage of inhibition of cell cultures
Experimental: as §1
(§5) Immunohistochemistry techniques. The presence of NK1 receptors was also analyzed using immunohistochemistry techniques. Briefly, a sample of each of the cultures of the cell lines used in the present invention, was centrifuged (5 minutes at 1.500 rpm) and the pellet obtained was dehydrated using increasing concentrations of ethanol and, finally, xylol. Then, said dehydrated samples were embedded in paraffin, creating a block of cells. Such paraffin blocks were cut with a microtome at 5 microns thickness, and were placed on microscope slides adequate to perform immunohistochemistry techniques. Consecutively, they were de-paraffinized by immersing them in xylol, to be finally hydrated using a solution containing decreasing concentrations of ethanol, and finally submerged them into water. […] After this, the samples were left to cool down at room temperature for 10 minutes. The endogenous peroxidase activity was blocked with 3% peroxide of hydrogen for 30 minutes at room temperature. After washing the samples with 0.05 M of Tris buffer, they were incubated with 10% non-immune pork serum at for 30 minutes at room temperature. To analyze the expression of NK1 receptors, the cellular samples were incubated in the presence of anti-NK1 antibodies (S8305, Sigma-Aldrich) diluted 1:1000, overnight at 4°C. Afterwards, the samples were washed in Tris buffer 0.05 M at room temperature. The next step was the addition of Envision System-HRP (Dako) reagents for 30 minutes at room temperature. Then, the samples were washed again in Tris buffer 0.05 M and the immunoreactivity was visualized through light microscopy with a chromogenic solution containing 3,3'-Diaminobenzidine (DAB+; Dako, USA). To differentiate the cell nuclei, they were slightly stained with hematoxylin. As negative control, it was used samples not incubated with the primary antibody anti-NK1, which was replaced by non-immune serum. All the samples were evaluated.
(§6) To value the immunostaining in each of the cases six cuts were performed to be analyzed by the immunohistochemistry technique. In each of the six cuts, it was counted cells in 20 fields (magnification 400x) using an Olympus microscope (model CX31). In each field it was counted the total number of cells and the number of cells presenting immunostaining, calculating afterwards the percentage of cells which presented immunostaining.

[5] = tested on: Urinary bladder carcinoma; assay: as above; type: cell-based; details: Homo sapiens, 1 micromolar, read-out: Percentage of inhibition of cell cultures
Experimental: as §1, §5, §6

[6] = tested on: Melanoma; assay: as above; type: cell-based; details: Homo sapiens, 1 micromolar, read-out: Percentage of inhibition of cell cultures
Experimental: as §1, §5, §6

[7] = tested on: Leukemia T; assay: as above; type: cell-based; details: Homo sapiens, 1 micromolar, read-out: Percentage of inhibition of cell cultures
Experimental: as §1, §5, §6

[8] = tested on: Colon carcinoma (Adenocarcinoma); assay: Inhibition of primary tumor cell cultures vs Kras mutation (Example 2); type: cell-based, human; details: 100 micromolar; for inhibition at 100 µM: Homo sapiens, read-out: Percentage of inhibition of cell cultures; for Percentage of inhibition of cell cultures: Colon carcinoma (Adenocarcinoma)
Experimental: as §1, §2, §3, §4

[9] = tested on: Carcinoma of the uterine cervix (Squamous cell carcinoma); assay: as above; type: cell-based, human; details: 100 micromolar; for inhibition at 100 µM: Homo sapiens, read-out: Percentage of inhibition of cell cultures; for Percentage of inhibition of cell cultures: Carcinoma of the uterine cervix (Squamous cell carcinoma)
Experimental: as §1, §2, §3, §4

[10] = tested on: Non Hodgkin Lymphoma T; assay: Inhibition of primary tumor cell cultures (48 hours) vs NK1 receptor immunostaining (Example 1); type: cell-based; details: Homo sapiens, 1 micromolar, read-out: Percentage of inhibition of cell cultures
Experimental: as §1, §5, §6

[11] = tested on: Glioma (astrocytoma); assay: Inhibition of primary tumor cell cultures vs Kras mutation (Example 2); type: cell-based, human; details: 100 micromolar; for inhibition at 100 µM: Homo sapiens, read-out: Percentage of inhibition of cell cultures; for Percentage of inhibition of cell cultures: Glioma (astrocytoma)
Experimental: as §1, §2, §3, §4

[12] = tested on: Renal cell carcinoma (clear cell renal cell carcinoma); assay: as above; type: cell-based, human; details: 100 micromolar; for inhibition at 100 µM: Homo sapiens, read-out: Percentage of inhibition of cell cultures; for Percentage of inhibition of cell cultures: Renal cell carcinoma (clear cell renal cell carcinoma)
Experimental: as §1, §2, §3, §4

[13] = NK1 receptor immunostaining Group 1 (less than 20% of the cells)
[14] = NK1 receptor immunostaining Group 2 (20-80% of the cells)
[15] = NK1 receptor immunostaining Group 3 (more than 80% of the cells)
[16] = NK1 receptor immunostaining Intensity grade 1
[17] = NK1 receptor immunostaining Intensity grade 2
[18] = NK1 receptor immunostaining Intensity grade 3
[19] = Cases with Kras non-mutated (wild type)

## C[C@@H](O[C@H]1OCCN(Cc2n[nH]c(=O)[nH]2)[C@H]1c1ccc(F)cc1)c1cc(C(F)(F)F)cc(C(F)(F)F)c1 [Aprepitant]
[1]; Non Hodgkin Lymphoma B (diffuse B cell lymphoma), Group I (constitutively activated form of NK1 receptor)
  Percentage of inhibition of cell cultures: 74±6%
[1]; Non Hodgkin Lymphoma T (diffuse T cell lymphoma), Group I (constitutively activated form of NK1 receptor)
  Percentage of inhibition of cell cultures: 75±6%
[1]; Non Hodgkin Lymphoma T (diffuse T cell lymphoma), Group II (normal form of the receptor)
  Percentage of inhibition of cell cultures: 96±4%
[1]; group with little proliferating response when exposed to substance P (constitutively activated form of NK1 receptor), compared
  inhibition of tumor cell growth: higher inhibition
[2]; Cases with Kras mutated
  inhibition at 100 µM: 25 ± 4%
[3]; Cases with Kras mutated
  inhibition at 100 µM: 21 ± 2%

## CC(=O)N1CCN([C@H]2CCN(C(=O)N(C)[C@H](C)c3cc(C(F)(F)F)cc(C(F)(F)F)c3)[C@@H](c3ccc(F)cc3C)C2)CC1 [Casopitant]
[4]; [13]
  inhibition at 1 µM: 14 ± 3%
[4]; [14]
  inhibition at 1 µM: 49 ± 3%
[4]; [15]
  inhibition at 1 µM: 94 ± 4%
[4]; [16]
  inhibition at 1 µM: 33 ± 4%
[4]; [17]
  inhibition at 1 µM: 54 ± 4%
[4]; [18]
  inhibition at 1 µM: 91 ± 3%
[5]; [13]
  inhibition at 1 µM: 17 ± 3%
[5]; [14]
  inhibition at 1 µM: 45 ± 3%
[5]; [15]
  inhibition at 1 µM: 94 ± 6%
[5]; [16]
  inhibition at 1 µM: 34 ± 4%
[5]; [17]
  inhibition at 1 µM: 56 ± 4%
[5]; [18]
  inhibition at 1 µM: 93 ± 4%
[6]; [13]
  inhibition at 1 µM: 15 ± 3%
[6]; [14]
  inhibition at 1 µM: 46 ± 4%
[6]; [15]
  inhibition at 1 µM: 93 ± 5%
[6]; [16]
  inhibition at 1 µM: 34 ± 3%
[6]; [17]
  inhibition at 1 µM: 52 ± 4%
[6]; [18]
  inhibition at 1 µM: 93 ± 3%
[7]; [13]
  inhibition at 1 µM: 16 ± 2%
[7]; [14]
  inhibition at 1 µM: 47 ± 5%
[7]; [15]
  inhibition at 1 µM: 95 ± 3%
[7]; [16]
  inhibition at 1 µM: 34 ± 2%
[7]; [17]
  inhibition at 1 µM: 56 ± 4%
[7]; [18]
  inhibition at 1 µM: 93 ± 3%
[8]; Cases with Kras mutated
  inhibition at 100 µM: 32 ± 4%
[8]; [19]
  inhibition at 100 µM: 94 ± 6%
[9]; Cases with Kras mutated
  inhibition at 100 µM: 27 ± 3%
[9]; [19]
  inhibition at 100 µM: 93 ± 3%
[10]; [13]
  inhibition at 1 µM: 14 ± 2%
[10]; [14]
  inhibition at 1 µM: 46 ± 6%
[10]; [15]
  inhibition at 1 µM: 94 ± 5%
[10]; [16]
  inhibition at 1 µM: 36 ± 5%
[10]; [17]
  inhibition at 1 µM: 54 ± 5%
[10]; [18]
  inhibition at 1 µM: 92 ± 2%
[11]; Cases with Kras mutated
  inhibition at 100 µM: 26 ± 4%
[11]; [19]
  inhibition at 100 µM: 94 ± 6%
[12]; Cases with Kras mutated
  inhibition at 100 µM: 27 ± 4%
[12]; [19]
  inhibition at 100 µM: 94 ± 3%
[2]; Cases with Kras mutated
  inhibition at 100 µM: 26 ± 4%
[2]; [19]
  inhibition at 100 µM: 96 ± 5%
[3]; Cases with Kras mutated
  inhibition at 100 µM: 25 ± 5%
[3]; [19]
  inhibition at 100 µM: 95 ± 5%

## Cc1cc(F)ccc1[C@H]1CNCCN1C(=O)N(C)[C@H](C)c1cc(C(F)(F)F)cc(C(F)(F)F)c1 [Vestipitant]
[4]; [13]
  inhibition at 1 µM: 14 ± 4%
[4]; [14]
  inhibition at 1 µM: 47 ± 4%
[4]; [15]
  inhibition at 1 µM: 95 ± 5%
[4]; [16]
  inhibition at 1 µM: 15 ± 3%
[4]; [17]
  inhibition at 1 µM: 46 ± 2%
[4]; [18]
  inhibition at 1 µM: 95 ± 4%
[5]; [13]
  inhibition at 1 µM: 15 ± 3%
[5]; [14]
  inhibition at 1 µM: 47 ± 4%
[5]; [15]
  inhibition at 1 µM: 92 ± 5%
[5]; [16]
  inhibition at 1 µM: 17 ± 3%
[5]; [17]
  inhibition at 1 µM: 46 ± 3%
[5]; [18]
  inhibition at 1 µM: 92 ± 3%
[6]; [13]
  inhibition at 1 µM: 16 ± 3%
[6]; [14]
  inhibition at 1 µM: 45 ± 4%
[6]; [15]
  inhibition at 1 µM: 92 ± 6%
[6]; [16]
  inhibition at 1 µM: 15 ± 3%
[6]; [17]
  inhibition at 1 µM: 48 ± 4%
[6]; [18]
  inhibition at 1 µM: 92 ± 4%
[7]; [13]
  inhibition at 1 µM: 17 ± 4%
[7]; [14]
  inhibition at 1 µM: 46 ± 3%
[7]; [15]
  inhibition at 1 µM: 94 ± 4%
[7]; [16]
  inhibition at 1 µM: 15 ± 3%
[7]; [17]
  inhibition at 1 µM: 48 ± 4%
[7]; [18]
  inhibition at 1 µM: 94 ± 5%
[8]; Cases with Kras mutated
  Percentage of inhibition of cell cultures: 33±5 percentage
[8]; [19]
  Percentage of inhibition of cell cultures: 96±5 percentage
[9]; Cases with Kras mutated
  Percentage of inhibition of cell cultures: 25±5 percentage
[9]; [19]
  Percentage of inhibition of cell cultures: 94±3 percentage
[10]; [13]
  inhibition at 1 µM: 13 ± 4%
[10]; [14]
  inhibition at 1 µM: 46 ± 4%
[10]; [15]
  inhibition at 1 µM: 93 ± 6%
[10]; [16]
  inhibition at 1 µM: 17 ± 2%
[10]; [17]
  inhibition at 1 µM: 48 ± 4%
[10]; [18]
  inhibition at 1 µM: 93 ± 5%
[11]; Cases with Kras mutated
  Percentage of inhibition of cell cultures: 25±3 percentage
[11]; [19]
  Percentage of inhibition of cell cultures: 97±5 percentage
[12]; Cases with Kras mutated
  Percentage of inhibition of cell cultures: 25±5 percentage
[12]; [19]
  Percentage of inhibition of cell cultures: 95±6 percentage
[2]; Cases with Kras mutated
  Percentage of inhibition of cell cultures: 25±5 percentage
[2]; [19]
  Percentage of inhibition of cell cultures: 96±5 percentage
[3]; Cases with Kras mutated
  Percentage of inhibition of cell cultures: 24±5 percentage
[3]; [19]
  Percentage of inhibition of cell cultures: 96±6 percentage
